Measurements as given in patent US20230115350A1 (Cedilla Therapeutics, Inc., priority 2021, published 2023).

biological target: TEAD1 protein (YAP Binding Domain) (Homo sapiens, UniProt P28347); assay: TEAD1 lipid pocket compound displacement assay (TR-FRET, Cy5-probe); settings: 60 minutes incubation at room temperature; TR-FRET 665 nm/620 nm; read-out: CDA IC50
Description: Compound Displacement Assay.
A TEAD1 lipid pocket displacement assay was carried out according to the following protocol. Purified His-tagged TEAD1 protein (YAP Binding Domain) was pre-mixed with a Cy5-probe (Cy5-conjugated to a small molecule that binds in the TEAD1 lipid pocket) and Terbium-labeled anti-His antibody (Cisbio Cat 61HI2TLB). The binding of the Cy5-probe to anti-His-Tb/His-tag TEAD1 complex yielded a TR-FRET signal. […] After 60 minutes incubation at room temperature of compounds with the His-TEAD1/anti-His-Tb/Cy5-probe complex, the plate was read on a plate reader (BMG ClarioStar Cat 430-1300) using TR-FRET mode with wavelengths of 665 nm/620 nm. The potency of compounds as TEAD1 lipid pocket binders was determined by IC50 value generated using a non-linear 4 parameter curve fit.

Sequence of TEAD1 protein (YAP Binding Domain) (P28347 209-426 limits assumed): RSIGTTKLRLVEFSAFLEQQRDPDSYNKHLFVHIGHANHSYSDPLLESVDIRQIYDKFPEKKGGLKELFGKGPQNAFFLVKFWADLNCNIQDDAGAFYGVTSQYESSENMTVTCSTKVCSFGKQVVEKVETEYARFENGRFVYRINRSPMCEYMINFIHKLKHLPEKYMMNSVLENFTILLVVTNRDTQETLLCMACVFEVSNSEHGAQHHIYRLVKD

SMILES | IC50
C=CS(=O)(=O)Nc1ccc(OCC2CCC(F)(F)CC2)c(F)c1 [Compound 34, N-(4-((4,4-difluorocyclohexyl)methoxy)-3-fluorophenyl) ethene sulfonamide] | ≤ 250 nM
O=C(O)c1ccc(OCC2CCC(F)(F)CC2)c(F)c1 [Compound 35, 4-((4,4-difluorocyclohexyl)methoxy)-3-fluorobenzoic acid] | 250 to 500 nM
O=C(O)c1ccc(F)c(OCC2CCC(F)(F)CC2)c1 [Compound 36, 3-((4,4-difluorocyclohexyl)methoxy)-4-fluorobenzoic acid] | 250 to 500 nM
O=C(NS(=O)(=O)C1CC1)c1ccc(OCC2CCC(F)(F)CC2)c(F)c1 [Compound 37, N-(cyclopropylsulfonyl)-4-((4,4-difluorocyclohexyl)methoxy)-3-fluorobenzamide] | 500 to 2000 nM
C=CC(=O)Nc1ccc(OCc2cccc(F)c2)cc1 [Compound 44, N-(4-((3-fluorobenzyl)oxy)phenyl)acrylamide] | > 2000 nM
C=CC(=O)Nc1ccc(OCc2cccc(F)c2)c(Cl)c1 [Compound 46, N-(3-chloro-4-((3-fluorobenzyl)oxy)phenyl)acrylamide] | ≤ 250 nM
C=CC(=O)Nc1ccc(OCc2cccc(F)c2)cc1C [Compound 47, N-(4-((3-fluorobenzyl)oxy)-2-methylphenyl)acrylamide] | 500 to 2000 nM
C=CC(=O)Nc1ccc(OCC2CCC(F)(F)CC2)c(C)c1 [Compound 48, N-(4-((4,4-difluorocyclohexyl)methoxy)-3-methylphenyl)acrylamide] | ≤ 250 nM
C=CC(=O)Nc1ccc(OCc2ccccc2)c(F)c1 [Compound 52, N-(4-(benzyloxy)-3-fluorophenyl)acrylamide] | 250 to 500 nM
C=CC(=O)Nc1ccc(OCc2cccnc2)c(F)c1 [Compound 56, N-(3-fluoro-4-(pyridin-3-ylmethoxy)phenyl)acrylamide] | > 2000 nM
C=CC(=O)Nc1ccc(OCc2cnccc2Cl)c(F)c1 [Compound 57, N-(4-((4-chloropyridin-3-yl)methoxy)-3-fluorophenyl)acrylamide] | > 2000 nM
C=CC(=O)Nc1ccc(OCc2ccsc2Cl)c(F)c1 [Compound 61, N-(4-((2-chlorothiophen-3-yl)methoxy)-3-fluorophenyl)acrylamide] | 500 to 2000 nM
C=CC(=O)Nc1ccc(OCc2ccc(C(=O)OC)s2)c(F)c1 [Compound 62, methyl 5-((4-acrylamido-2-fluorophenoxy)methyl)thiophene-2-carboxylate] | 500 to 2000 nM
C=CC(=O)Nc1ccc(OCc2cnc(C)s2)c(F)c1 [Compound 64, N-(3-fluoro-4-((2-methylthiazol-5-yl)methoxy)phenyl)acrylamide] | > 2000 nM
C=CC(=O)Nc1ccc(OCc2oc(=O)oc2C)c(F)c1 [Compound 65, N-(3-fluoro-4-((5-methyl-2-oxo-1,3-dioxol-4-yl)methoxy)phenyl)acrylamide] | > 2000 nM
C=CC(=O)Nc1ccc(OCc2ccncc2)c(F)c1 [Compound 66] | > 2000 nM
C=CC(=O)Nc1ccc(OCc2ccnc(C#N)c2)c(F)c1 [Compound 67, N-(4-((2-cyanopyridin-4-yl)methoxy)-3-fluorophenyl)acrylamide] | > 2000 nM
C=CC(=O)Nc1ccc(OCc2ccc(Br)nc2)c(F)c1 [Compound 68, N-(4-((6-bromopyridin-3-yl)methoxy)-3-fluorophenyl)acrylamide] | 500 to 2000 nM
C=CC(=O)Nc1ccc(OCc2ccc(C)nc2)c(F)c1 [Compound 69, N-(3-fluoro-4-((6-methylpyridin-3-yl)methoxy)phenyl)acrylamide] | > 2000 nM
C=CC(=O)Nc1ccc(OCc2ccc(C(=O)OC)nc2)c(F)c1 [Compound 70, methyl 5-((4-acrylamido-2-fluorophenoxy)methyl)picolinate] | > 2000 nM
C=CC(=O)Nc1ccc(OCc2cccnc2C)c(F)c1 [Compound 75, N-(3-fluoro-4-((2-methylpyridin-3-yl)methoxy)phenyl)acrylamide] | > 2000 nM
C=CC(=O)Nc1ccc(OCc2ccc(C#N)cc2Cl)c(F)c1 [Compound 77, N-(4-((2-chloro-4-cyanobenzyl)oxy)-3-fluorophenyl)acrylamide] | > 2000 nM

SMILES | IC50
C=CC(=O)Nc1ccc(OCc2cc(Cl)ccc2Cl)c(F)c1 [Compound 79, N-(4-((2,5-dichlorobenzyl)oxy)-3-fluorophenyl)acrylamide] | 500 to 2000 nM
C=CC(=O)Nc1ccc(OCc2ccc(C(F)(F)F)cc2Cl)c(F)c1 [Compound 81, N-(4-((2-chloro-4-(trifluoromethyl)benzyl)oxy)-3-fluorophenyl)acrylamide] | > 2000 nM
C=CC(=O)Nc1ccc(OCc2c(F)cccc2Cl)c(F)c1 [Compound 85, N-(4-((2-chloro-6-fluorobenzyl)oxy)-3-fluorophenyl)acrylamide] | > 2000 nM
C=CC(=O)Nc1ccc(OCc2c(Cl)cccc2Cl)c(F)c1 [Compound 86, N-(4-((2,6-dichlorobenzyl)oxy)-3-fluorophenyl)acrylamide] | > 2000 nM
C=CC(=O)Nc1ccc(OCc2cc(C(=O)OC)ccc2Cl)c(F)c1 [Compound 87, methyl 3-((4-acrylamido-2-fluorophenoxy)methyl)-4-chlorobenzoate] | 500 to 2000 nM
C=CC(=O)Nc1ccc(OCc2cc(OC)ccc2Cl)c(F)c1 [Compound 88, N-(4-((2-chloro-5-methoxybenzyl)oxy)-3-fluorophenyl)acrylamide] | 250 to 500 nM
C=CC(=O)Nc1ccc(OCc2cccc(Cl)c2)c(F)c1 [Compound 90, N-(4-((3-chlorobenzyl)oxy)-3-fluorophenyl)acrylamide] | ≤ 250 nM
C=CC(=O)Nc1ccc(OCc2cccc(C#N)c2)c(F)c1 [Compound 92, N-(4-((3-cyanobenzyl)oxy)-3-fluorophenyl)acrylamide] | 500 to 2000 nM
C=CC(=O)Nc1ccc(OCc2cccc(C)c2)c(F)c1 [Compound 93, N-(3-fluoro-4-((3-methylbenzyl)oxy)phenyl)acrylamide] | ≤ 250 nM
C=CC(=O)Nc1ccc(OCCCC(F)(F)F)c(F)c1 [Compound 94, N-(3-fluoro-4-(4,4,4-trifluorobutoxy)phenyl)acrylamide] | 500 to 2000 nM
C=CC(=O)Nc1ccc(OCc2cccc(F)c2F)c(F)c1 [Compound 95, N-(4-((2,3-difluorobenzyl)oxy)-3-fluorophenyl)acrylamide] | 250 to 500 nM
C=CC(=O)Nc1ccc(OCc2cc(F)cc(F)c2)c(F)c1 [Compound 97, N-(4-((3,5-difluorobenzyl)oxy)-3-fluorophenyl)acrylamide] | 250 to 500 nM
C=CC(=O)Nc1ccc(Oc2ccc(C3CCCCC3)cc2)c(F)c1 [Compound 102, N-(4-(4-cyclohexylphenoxy)-3-fluorophenyl)acrylamide] | ≤ 250 nM
C=CC(=O)Nc1ccc(C(=O)Nc2cccc(F)c2)c(F)c1 [Compound 118, 4-acrylamido-2-fluoro-N-(3-fluorophenyl)benzamide] | > 2000 nM
C=CC(=O)Nc1ccc(C2CCc3ccccc3C2)c(F)c1 (stereo not shown) [Compound 119, N-(3-fluoro-4-(1,2,3,4-tetrahydronaphthalen-2-yl)phenyl)acrylamide] | 500 to 2000 nM
C=CC(=O)Nc1ccc(OC(C)c2ccccc2Cl)c(F)c1 (stereo not shown) [Compound 123, N-(4-(1-(2-chlorophenyl)ethoxy)-3-fluorophenyl)acrylamide] | 500 to 2000 nM
C=CC(=O)Nc1ccc(OCc2cccc(F)c2)c(F)n1 [Compound 127, N-(6-fluoro-5-((3-fluorobenzyl)oxy)pyridin-2-yl)acrylamide] | ≤ 250 nM
C=CC(=O)Nc1cc(F)c(OCc2cccc(F)c2)cn1 [Compound 128, N-(4-fluoro-5-((3-fluorobenzyl)oxy)pyridin-2-yl)acrylamide] | ≤ 250 nM
C=CC(=O)Nc1ccc(OCc2cccc(F)c2)c(C#N)c1 [Compound 130, N-(3-cyano-4-((3-fluorobenzyl)oxy)phenyl)acrylamide] | 500 to 2000 nM
C=CC(=O)Nc1ccc(C2COc3ccccc3C2=O)c(F)c1 (stereo not shown) [Compound 131, N-(3-fluoro-4-(4-oxochroman-3-yl)phenyl)acrylamide] | 500 to 2000 nM
C=CC(=O)Nc1cc2nc(CCc3cccc(F)c3)oc2cc1F [Compound 139, N-(6-fluoro-2-(3-fluorophenethyl)benzo[d]oxazol-5-yl)acrylamide] | 250 to 500 nM
